Assay results: ChEMBL document CHEMBL3797052 (Eur J Med Chem, 2016)

System: NCI-H226
Assay: Antiproliferative activity against human NCI-H226 cells assessed as growth inhibition after 48 hrs by sulforhodamine B assay
Type: functional
Conditions: NCI-H226, 48 h
With `CNC(=O)c1cc(Oc2ccc3nc(NC(=O)Nc4ccc(Cl)c(Cl)c4)sc3c2)ccn1` the GI50 was 2.28 µM and the TGI was 4.58 µM.

Same assay, conditions: NCI-H226, 48 h, read-out: LC50 (the source's name)
`CNC(=O)c1cc(Oc2ccc3nc(NC(=O)Nc4ccc(Cl)c(Cl)c4)sc3c2)ccn1` gave a CC50 of 9.21 µM.

System: KM12
Assay: Antiproliferative activity against human KM12 cells assessed as cell growth at 10^-7 M after 48 hrs by sulforhodamine B assay
Type: functional
Conditions: KM12, 48 h, read-out: Activity
With `CNC(=O)c1cc(Oc2ccc3nc(NC(=O)Nc4ccc(Cl)c(Cl)c4)sc3c2)ccn1` the growth at 0.1 µM was 100%.

System: not listed separately
Assay: Antiproliferative activity against human HCC2998 cells assessed as cell growth at 10^-8 M after 48 hrs by sulforhodamine B assay
Type: functional
Conditions: HCC 2998, 48 h, read-out: Activity
For `CNC(=O)c1cc(Oc2ccc3nc(NC(=O)Nc4ccc(Cl)c(Cl)c4)sc3c2)ccn1`, the growth at 0.01 µM was 98%.

System: Malme-3M
Assay: Antiproliferative activity against human MALME-3M cells assessed as growth inhibition after 48 hrs by sulforhodamine B assay
Type: functional
Conditions: not given
`CNC(=O)c1cc(Oc2ccc3nc(NC(=O)Nc4ccc(Cl)c(Cl)c4)sc3c2)ccn1` showed a GI50 of 1.51 µM and a TGI of 3.3 µM.

Same assay, conditions: read-out: LC50 (the source's name)
`CNC(=O)c1cc(Oc2ccc3nc(NC(=O)Nc4ccc(Cl)c(Cl)c4)sc3c2)ccn1` gave a CC50 of 7.21 µM.

System: not listed separately
Assay: Antiproliferative activity against human IGROV1 cells assessed as cell growth at 10^-7 M after 48 hrs by sulforhodamine B assay
Type: functional
Conditions: IGROV-1, 48 h, read-out: Activity
In the case of `CNC(=O)c1cc(Oc2ccc3nc(NC(=O)Nc4ccc(Cl)c(Cl)c4)sc3c2)ccn1`, the growth at 0.1 µM is reported as 92%.

System: EKVX
Assay: Antiproliferative activity against human EKVX cells assessed as cell growth at 10^-4 M after 48 hrs by sulforhodamine B assay
Type: functional
Conditions: read-out: Activity
For `CNC(=O)c1cc(Oc2ccc3nc(NC(=O)Nc4ccc(Cl)c(Cl)c4)sc3c2)ccn1`, the growth at 100 µM was 23%.

System: not listed separately
Assay: Antiproliferative activity against human HCT15 cells assessed as cell growth at 10^-7 M after 48 hrs by sulforhodamine B assay
Type: functional
Conditions: HCT-15, 48 h, read-out: Activity
`CNC(=O)c1cc(Oc2ccc3nc(NC(=O)Nc4ccc(Cl)c(Cl)c4)sc3c2)ccn1` gave a growth at 0.1 µM of 97%.

System: not listed separately
Assay: Antiproliferative activity against human MOLT4 cells assessed as growth inhibition after 48 hrs by sulforhodamine B assay
Type: functional
Conditions: MOLT-4, 48 h
For `CNC(=O)c1cc(Oc2ccc3nc(NC(=O)Nc4ccc(Cl)c(Cl)c4)sc3c2)ccn1`, the GI50 was > 100 µM, the LC50 was > 100 µM and the TGI was > 100 µM.

System: M14
Assay: Antiproliferative activity against human M14 cells assessed as cell growth at 10^-6 M after 48 hrs by sulforhodamine B assay
Type: functional
Conditions: M14, 48 h, read-out: Activity
`CNC(=O)c1cc(Oc2ccc3nc(NC(=O)Nc4ccc(Cl)c(Cl)c4)sc3c2)ccn1` gave a growth at 1 µM of 97%.

System: A498
Assay: Antiproliferative activity against human A498 cells assessed as cell growth at 10^-7 M after 48 hrs by sulforhodamine B assay
Type: functional
Conditions: A498, 48 h, read-out: Activity
For `CNC(=O)c1cc(Oc2ccc3nc(NC(=O)Nc4ccc(Cl)c(Cl)c4)sc3c2)ccn1`, the growth at 0.1 µM was 110%.

System: not listed separately
Assay: Antiproliferative activity against human HCT116 cells assessed as cell growth at 10^-8 M after 48 hrs by sulforhodamine B assay
Type: functional
Conditions: HCT-116, 48 h, read-out: Activity
Compound `CNC(=O)c1cc(Oc2ccc3nc(NC(=O)Nc4ccc(Cl)c(Cl)c4)sc3c2)ccn1` has a growth at 0.01 µM of 94%.

System: not listed separately
Assay: Antiproliferative activity against human Hs 578T cells assessed as cell growth at 10^-4 M after 48 hrs by sulforhodamine B assay
Type: functional
Conditions: read-out: Activity
`CNC(=O)c1cc(Oc2ccc3nc(NC(=O)Nc4ccc(Cl)c(Cl)c4)sc3c2)ccn1` gave a growth at 100 µM of -22%.

System: 786-0
Assay: Antiproliferative activity against human 786-0 cells assessed as cell growth at 10^-8 M after 48 hrs by sulforhodamine B assay
Type: functional
Conditions: 786-0, 48 h, read-out: Activity
Work on `CNC(=O)c1cc(Oc2ccc3nc(NC(=O)Nc4ccc(Cl)c(Cl)c4)sc3c2)ccn1` yielded a growth at 0.01 µM of 95%.

System: T47D
Assay: Antiproliferative activity against human T47D cells assessed as cell growth at 10^-6 M after 48 hrs by sulforhodamine B assay
Type: functional
Conditions: read-out: Activity
With `CNC(=O)c1cc(Oc2ccc3nc(NC(=O)Nc4ccc(Cl)c(Cl)c4)sc3c2)ccn1` the growth at 1 µM was 106%.

System: KM12
Assay: Antiproliferative activity against human KM12 cells assessed as cell growth at 10^-6 M after 48 hrs by sulforhodamine B assay
Type: functional
Conditions: KM12, 48 h, read-out: Activity
Compound `CNC(=O)c1cc(Oc2ccc3nc(NC(=O)Nc4ccc(Cl)c(Cl)c4)sc3c2)ccn1` has a growth at 1 µM of 91%.

System: M14
Assay: Antiproliferative activity against human M14 cells assessed as cell growth at 10^-7 M after 48 hrs by sulforhodamine B assay
Type: functional
Conditions: M14, 48 h, read-out: Activity
Compound `CNC(=O)c1cc(Oc2ccc3nc(NC(=O)Nc4ccc(Cl)c(Cl)c4)sc3c2)ccn1` has a growth at 0.1 µM of 96%.

System: not listed separately
Assay: Antiproliferative activity against human SF295 cells assessed as cell growth at 10^-4 M after 48 hrs by sulforhodamine B assay
Type: functional
Conditions: SF-295, 48 h, read-out: Activity
Work on `CNC(=O)c1cc(Oc2ccc3nc(NC(=O)Nc4ccc(Cl)c(Cl)c4)sc3c2)ccn1` yielded a growth at 100 µM of -74%.

System: MDA-MB-435
Assay: Antiproliferative activity against human MDA-MB-435 cells assessed as cell growth at 10^-8 M after 48 hrs by sulforhodamine B assay
Type: functional
Conditions: MDA-MB-435, 48 h, read-out: Activity
Work on `CNC(=O)c1cc(Oc2ccc3nc(NC(=O)Nc4ccc(Cl)c(Cl)c4)sc3c2)ccn1` yielded a growth at 0.01 µM of 89%.

System: not listed separately
Assay: Antiproliferative activity against human NCI-ADR-RES cells assessed as cell growth at 10^-4 M after 48 hrs by sulforhodamine B assay
Type: functional
Conditions: read-out: Activity
Work on `CNC(=O)c1cc(Oc2ccc3nc(NC(=O)Nc4ccc(Cl)c(Cl)c4)sc3c2)ccn1` yielded a growth at 100 µM of -49%.

System: not listed separately
Assay: Antiproliferative activity against human LOXIMVI cells assessed as cell growth at 10^-4 M after 48 hrs by sulforhodamine B assay
Type: functional
Conditions: LOX IMVI, read-out: Activity
In the case of `CNC(=O)c1cc(Oc2ccc3nc(NC(=O)Nc4ccc(Cl)c(Cl)c4)sc3c2)ccn1`, the growth at 100 µM is reported as -62%.
